Results reported in patent EP4656642A1, “ESTROGEN RECEPTOR PROTEOLYSIS TARGETING CHIMERA COMPOUND AND USE THEREOF” (GAN & LEE PHARM CO., LTD, priority 2023, dated 2024).

How the values were obtained:
Type in all cases: cell-based
ERα [1] = biological target: T1, ERα (Homo sapiens, UniProt P03372); experiment: Degradation of ERα in MCF-7 cells (immunoblotting, 4 h)
T1 sequence (P03372 1-595): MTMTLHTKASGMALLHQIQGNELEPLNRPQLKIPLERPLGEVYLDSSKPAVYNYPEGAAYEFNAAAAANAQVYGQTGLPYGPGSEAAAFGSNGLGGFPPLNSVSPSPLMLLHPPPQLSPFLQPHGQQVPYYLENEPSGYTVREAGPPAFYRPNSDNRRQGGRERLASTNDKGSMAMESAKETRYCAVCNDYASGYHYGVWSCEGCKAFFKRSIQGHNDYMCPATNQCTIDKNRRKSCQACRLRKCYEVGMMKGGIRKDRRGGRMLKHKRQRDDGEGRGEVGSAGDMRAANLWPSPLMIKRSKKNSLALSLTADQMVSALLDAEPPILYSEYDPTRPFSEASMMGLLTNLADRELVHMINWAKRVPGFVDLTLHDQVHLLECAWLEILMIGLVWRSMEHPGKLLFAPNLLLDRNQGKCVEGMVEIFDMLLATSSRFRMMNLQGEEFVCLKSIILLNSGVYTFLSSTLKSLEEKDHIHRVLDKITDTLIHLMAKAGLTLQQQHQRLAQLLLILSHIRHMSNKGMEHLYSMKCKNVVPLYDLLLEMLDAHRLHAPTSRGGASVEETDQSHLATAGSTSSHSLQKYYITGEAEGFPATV
Summary of the method: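 MCF-7 cells treated 4 h at 37°C with compounds at 0.15-1000nM final. ERα in lysates measured by immunoblot, with band grayscale normalized to an internal reference protein. Degradation rate calculated against DMSO-treated control.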

MCF-7 cells = experiment: Inhibition of cell proliferation of MCF-7 cells (CCK-8, 9 days)
Summary of the method: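 MCF-7 cells seeded at 800 cells/well in DMEM with 10% FBS, exposed to a range of compound concentrations for 9 days at 37°C, 5% CO2. Viability read by CCK-8; IC50 derived for proliferation inhibition.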

ERα [2] = biological target: T1, ERα; experiment: Degradation of ERα in T-47D cells (immunoblotting, 4 h); parameters: host or cells: T-47D
Summary of the method: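 T-47D cells were treated with compound (final 0.15-1000 nM, DMSO) for 4 h at 37°C, 5% CO2. Cells were lysed in RIPA buffer with protease inhibitor, and ERα protein in the cleared lysate was measured by immunoblotting.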

T-47D cells = experiment: Inhibition of cell proliferation in T-47D cells (CCK-8, 6 days); settings: 6 days of treatment
Summary of the method: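 T-47D cells at 3,000 cells/well in RPMI 1640 with 10% FBS were exposed to a concentration series of PROTAC compounds for 6 days at 37 °C, 5% CO2. Viability was read by CCK-8, and IC50 values were derived for proliferation inhibition.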

[3] = treated for 9 days, CCK-8 kit (Table 6)

Structure (SMILES)	Degradation rate (%) of ERα in MCF-7 cells (ERα [1]; 1nM compound) [%]	Degradation rate (%) of ERα in MCF-7 cells (ERα [1]; 10nM compound) [%]	IC50 (MCF-7 cells; [3]) [nM]	Degradation rate (%) of ERα in T-47D cells (ERα [2]; 1nM compound) [%]	Degradation rate (%) of ERα in T-47D cells (ERα [2]; 10nM compound) [%]	IC50 (T-47D cells; Table 3) [nM]	IC50 (MCF-7 cells; 9 days of treatment, CCK-8, Table 5) [nM]	IC50 (T-47D cells; Table 2) [nM]
O=C1CCC(N2Cc3c(ccc4c3OCC43CCN(C4CCN(C5CC6(CCN(c7ccc([C@@H]8c9ccc(O)cc9CC[C@@H]8c8ccccc8)cc7)CC6)C5)[C@H](C(=O)NC5CC5)C4)CC3)C2=O)C(=O)N1 (stereo partly shown) [H41]	63	80	5.05	59	83	1.88	–	–
O=C1CCC(N2Cc3ccc4c(c3C2=O)OCC42CCN(C3CCN(C(=O)C4(F)CCN(c5ccc([C@@H]6c7ccc(O)cc7CC[C@@H]6c6ccccc6)cc5)CC4)CC3F)CC2)C(=O)N1 (stereo partly shown) [A93]	31	69	10.5	26	71	1.85	–	–
CN(CC1CCN(c2ccc([C@@H]3c4ccc(O)cc4CC[C@@H]3c3ccccc3)cc2)CC1)[C@H]1CC[C@H](C(=O)N2CCC3(CC2)COc2c3ccc3c2CN(C2CCC(=O)NC2=O)C3=O)CC1 (stereo partly shown) [N3]	-4	1	195	30	70	4.92	–	–
O=C1CCC(N2Cc3cc4c(cc3C2=O)OC2(CC4)CN(C(=O)C3CCN(c4ccc([C@@H]5c6ccc(O)cc6CC[C@@H]5c5ccccc5)cc4)CC3)C2)C(=O)N1 (stereo partly shown) [A51]	5	15	2920	-10	3	12.2	–	–
O=C1CCC(N2Cc3cc4c(cc3C2=O)OCC2(CCN(CC3CCC5(CC3)CCN(c3ccc([C@@H]6c7ccc(O)cc7CC[C@@H]6c6ccccc6)cc3)CC5)CC2)O4)C(=O)N1 (stereo partly shown) [A39]	-16	-27	30	11	6	41	–	–
C[C@@H]1Cc2c(ccc3[nH]ncc23)C(c2ccc(N3CCC4(CCC(N5CCC6(CC5)COc5c6ccc6c5CN(C5CCC(=O)NC5=O)C6=O)CC4)CC3)cn2)N1CC(F)(F)F (stereo partly shown) [K41]	-3	64	590	54	84	41	–	–
O=C1CCC(N2C(=O)c3cc4c(cc3C2=O)C2(CCN(C3CCC5(CC3)CCN(c3ccc(C6c7ccc(O)cc7CCC6c6ccccc6)cc3)CC5)CC2)CO4)C(=O)N1 (stereo not shown) [A18]	–	20	–	–	14	–	170	68
O=C1CCC(N2Cc3c(ccc4c3OCC43CCN(C4CCC5(CC4)CCN(c4ccc([C@@H]6c7ccc(O)cc7CC[C@@H]6c6ccccc6)cc4)CC5)CC3)C2=O)C(=O)N1 (stereo partly shown) [L15]	18	57	19	23	71	8.02	–	–
C[C@@H]1C[C@H](N2CCC3(CC2)COc2c3ccc3c2CN(C2CCC(=O)NC2=O)C3=O)CCN1C(=O)C1CCN(c2ccc([C@@H]3c4ccc(O)cc4CC[C@@H]3c3ccccc3)cc2)CC1 (stereo partly shown) [H28]	36	65	8.41	62	83	1.01	–	–
O=C1CCC(N2Cc3c(ccc4c3OCC43CCN(C[C@H]4CC[C@H](C#Cc5ccc([C@@H]6c7ccc(O)cc7CC[C@@H]6c6ccccc6)cc5)CC4)CC3)C2=O)C(=O)N1 (stereo partly shown) [A115]	0	16	60.6	17	43	10.9	–	–
CCN(C1CCN(c2ccc([C@@H]3c4ccc(O)cc4CC[C@@H]3c3ccccc3)cc2)CC1)[C@H]1CC[C@@H](C(=O)N2CCC3(CC2)COc2c3ccc3c2CN(C2CCC(=O)NC2=O)C3=O)CC1 (stereo partly shown) [B43]	54	62	232	57	80	4.04	–	–
C[C@@H]1Cc2c([nH]c3ccccc23)[C@@H](c2c(F)cc(N3CCC4(CCN(CC(=O)N5CCC6(CC5)COc5c6ccc6c5CN(C5CCC(=O)NC5=O)C6=O)CC4)CC3)cc2F)N1CC(F)F (stereo partly shown) [A112]	15	63	59.4	40	78	2.01	–	–
O=C1CCC(N2Cc3c(ccc4c3OCC43CCN(C(=O)C4CCN(C5CCN(c6ccc([C@@H]7c8ccc(O)cc8CC[C@@H]7c7ccccc7)cc6)CC5)CC4)CC3)C2=O)C(=O)N1 (stereo partly shown) [K7]	55	64	10.6	63	79	1.41	–	–
O=C1CCC(N2Cc3ccc4c(c3C2=O)OC2(CC4)CCN(C3CC4(CCN(c5ccc([C@@H]6c7ccc(O)cc7CC[C@@H]6c6ccccc6)cc5)CC4)C3)CC2)C(=O)N1 (stereo partly shown) [A45]	-3	-15	160	-6	-28	79	–	–
O=C1CCC(N2Cc3ccc4c(c3C2=O)CC2(CCN(C3CCC5(CC3)CN(c3ccc([C@@H]6c7ccc(O)cc7CC[C@@H]6c6ccccc6)cc3)C5)CC2)CO4)C(=O)N1 (stereo partly shown) [L10]	-11	-6	925	14	29	17.9	–	–
O=C1CCC(N2Cc3c(ccc4c3OCC43CCN(C(=O)C4CCC(N5CCC(C#Cc6ccc([C@@H]7c8ccc(O)cc8CC[C@@H]7c7ccccc7)cc6)CC5)CC4)CC3)C2=O)C(=O)N1 (stereo partly shown) [A101]	52	61	850	44	45	0.91	–	–
CNC(=O)[C@@H]1CC(N2CCC3(CC2)COc2c3ccc3c2CN(C2CCC(=O)NC2=O)C3=O)CCN1C1CC2(CCN(c3ccc([C@@H]4c5ccc(O)cc5CC[C@@H]4c4ccccc4)cc3)CC2)C1 (stereo partly shown) [H38]	49	71	31.8	34	75	2.58	–	–
